{"source": "patent US5358951A", "about": "“Angiotensin II receptor blocking 2, 3, 6 substituted quinazolinones” (American Cyanamid Company, priority 1993, dated 1994)", "tested_on": "vasopressor response of angiotensin II", "assay": "AII Challenge: antagonism of angiotensin II vasopressor response", "type": "in vivo", "conditions": "for inhibition in vivo at 3 mg/kg / inhibition in vivo at 5 mg/kg: Rattus norvegicus; for inhibition in vivo at 3 mg/kg: iv; for inhibition in vivo at 5 mg/kg: po", "summary_of_the_method": "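Percent antagonism is based on the systolic blood pressure rise (mmHg) to i.v. angiotensin II at 0.05 and 0.1 ug/kg. Each rat's own predose response was taken as 100%. Challenges were repeated from 30 to 300 min after i.v., i.p. or oral compound in cannulated conscious male SHR, 16-20 weeks old.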", "key": {"[1]": {"conditions": "3 mg/kg I.V., AII 0.05 mcg/kg IV, 30 min post dose"}, "[2]": {"conditions": "3 mg/kg I.V., AII 0.05 mcg/kg IV, 60 min post dose"}, "[3]": {"conditions": "3 mg/kg I.V., AII 0.05 mcg/kg IV, 90 min post dose"}, "[4]": {"conditions": "3 mg/kg I.V., AII 0.05 mcg/kg IV, 120 min post dose"}, "[5]": {"conditions": "3 mg/kg I.V., AII 0.05 mcg/kg IV, 180 min post dose"}, "[6]": {"conditions": "3 mg/kg I.V., AII 0.1 mcg/kg IV, 30 min post dose"}, "[7]": {"conditions": "3 mg/kg I.V., AII 0.1 mcg/kg IV, 60 min post dose"}, "[8]": {"conditions": "3 mg/kg I.V., AII 0.1 mcg/kg IV, 90 min post dose"}, "[9]": {"conditions": "3 mg/kg I.V., AII 0.1 mcg/kg IV, 120 min post dose"}, "[10]": {"conditions": "3 mg/kg I.V., AII 0.1 mcg/kg IV, 180 min post dose"}, "[11]": {"conditions": "0.5 h, 3 mg/kg I.V., AII 0.05 mcg/kg IV, 30 min post dose"}, "[12]": {"conditions": "0.5 h, 3 mg/kg I.V., AII 0.1 mcg/kg IV, 30 min post dose"}, "[13]": {"conditions": "1 h, 3 mg/kg I.V., AII 0.05 mcg/kg IV, 60 min post dose"}, "[14]": {"conditions": "1 h, 3 mg/kg I.V., AII 0.1 mcg/kg IV, 60 min post dose"}, "[15]": {"conditions": "2 h, 3 mg/kg I.V., AII 0.05 mcg/kg IV, 120 min post dose"}, "[16]": {"conditions": "2 h, 3 mg/kg I.V., AII 0.1 mcg/kg IV, 120 min post dose"}, "[17]": {"conditions": "3 h, 3 mg/kg I.V., AII 0.05 mcg/kg IV, 180 min post dose"}, "[18]": {"conditions": "3 h, 3 mg/kg I.V., AII 0.1 mcg/kg IV, 180 min post dose"}, "[19]": {"conditions": "[…], 3 mg/kg I.V., AII 0.05 mcg/kg IV, 90 min post dose"}, "[20]": {"conditions": "[…], 3 mg/kg I.V., AII 0.1 mcg/kg IV, 90 min post dose"}}}
{"compound": "CCCCc1nc2ccc([C@H]3C[C@]4(C)CCCCN4O3)cc2c(=O)n1Cc1ccc(-c2ccccc2-c2nnn[nH]2)cc1", "note": "(relative stereo) [Example 65]", "values": [{"measurement": "Response Average Change", "setting": "[1]", "value": 2.5, "unit": "mmHg"}, {"measurement": "Response Average Change", "setting": "[2]", "value": 15.5, "unit": "mmHg"}, {"measurement": "Response Average Change", "setting": "[3]", "value": 11, "unit": "mmHg"}, {"measurement": "Response Average Change", "setting": "[4]", "value": 8, "unit": "mmHg"}, {"measurement": "Response Average Change", "setting": "[5]", "value": 25, "unit": "mmHg"}, {"measurement": "Response Average Change", "setting": "[6]", "value": 2.5, "unit": "mmHg"}, {"measurement": "Response Average Change", "setting": "[7]", "value": 11, "unit": "mmHg"}, {"measurement": "Response Average Change", "setting": "[8]", "value": 16.5, "unit": "mmHg"}, {"measurement": "Response Average Change", "setting": "[9]", "value": 12.5, "unit": "mmHg"}, {"measurement": "Response Average Change", "setting": "[10]", "value": 17.5, "unit": "mmHg"}, {"measurement": "inhibition in vivo at 3 mg/kg", "setting": "[11]", "value": 95, "unit": "%"}, {"measurement": "inhibition in vivo at 3 mg/kg", "setting": "[12]", "value": 95, "unit": "%"}, {"measurement": "inhibition in vivo at 3 mg/kg", "setting": "[13]", "value": 66, "unit": "%"}, {"measurement": "inhibition in vivo at 3 mg/kg", "setting": "[14]", "value": 77, "unit": "%"}, {"measurement": "inhibition in vivo at 3 mg/kg", "setting": "[15]", "value": 82, "unit": "%"}, {"measurement": "inhibition in vivo at 3 mg/kg", "setting": "[16]", "value": 74, "unit": "%"}, {"measurement": "inhibition in vivo at 3 mg/kg", "setting": "[17]", "value": 45, "unit": "%"}, {"measurement": "inhibition in vivo at 3 mg/kg", "setting": "[18]", "value": 64, "unit": "%"}, {"measurement": "inhibition in vivo at 3 mg/kg", "setting": "[19]", "value": 76, "unit": "%"}, {"measurement": "inhibition in vivo at 3 mg/kg", "setting": "[20]", "value": 66, "unit": "%"}]}
{"compound": "CCCCc1nc2ccc([C@@H]3C[C@H]4CCCN4O3)cc2c(=O)n1Cc1ccc(-c2ccccc2-c2nnn[nH]2)cc1", "note": "(racemic) [Example 57, Cis-(+/-)-2-Butyl-6-(hexahydropyrrolo[1,2-b]isoxazol-2-yl)-3-[[2'-(1H-tetrazol-5-yl)[1,1'-biphenyl]-4-yl]methyl]-4(3H)-quinazolinone]", "values": [{"measurement": "Response Average Change", "setting": "[1]", "value": 12.5, "unit": "mmHg"}, {"measurement": "Response Average Change", "setting": "[2]", "value": 22.5, "unit": "mmHg"}, {"measurement": "Response Average Change", "setting": "[3]", "value": 20, "unit": "mmHg"}, {"measurement": "Response Average Change", "setting": "[4]", "value": 17.5, "unit": "mmHg"}, {"measurement": "Response Average Change", "setting": "[5]", "value": 36, "unit": "mmHg"}, {"measurement": "Response Average Change", "setting": "[6]", "value": 7.5, "unit": "mmHg"}, {"measurement": "Response Average Change", "setting": "[7]", "value": 15, "unit": "mmHg"}, {"measurement": "Response Average Change", "setting": "[8]", "value": 20, "unit": "mmHg"}, {"measurement": "Response Average Change", "setting": "[9]", "value": 37.5, "unit": "mmHg"}, {"measurement": "Response Average Change", "setting": "[10]", "value": 44, "unit": "mmHg"}, {"measurement": "Response Average Change", "setting": "5 mg/kg P.O., AII 0.05 mcg/kg IV, 30 min post dose", "value": 31.5, "unit": "mmHg"}, {"measurement": "Response Average Change", "setting": "5 mg/kg P.O., AII 0.05 mcg/kg IV, 60 min post dose", "value": 25, "unit": "mmHg"}, {"measurement": "Response Average Change", "setting": "5 mg/kg P.O., AII 0.05 mcg/kg IV, 90 min post dose", "value": 32.5, "unit": "mmHg"}, {"measurement": "Response Average Change", "setting": "5 mg/kg P.O., AII 0.05 mcg/kg IV, 120 min post dose", "value": 20, "unit": "mmHg"}, {"measurement": "Response Average Change", "setting": "5 mg/kg P.O., AII 0.05 mcg/kg IV, 180 min post dose", "value": 20, "unit": "mmHg"}, {"measurement": "Response Average Change", "setting": "5 mg/kg P.O., AII 0.05 mcg/kg IV, 240 min post dose", "value": 20, "unit": "mmHg"}, {"measurement": "Response Average Change", "setting": "5 mg/kg P.O., AII 0.05 mcg/kg IV, 300 min post dose", "value": 22.5, "unit": "mmHg"}, {"measurement": "Response Average Change", "setting": "5 mg/kg P.O., AII 0.1 mcg/kg IV, 30 min post dose", "value": 22.5, "unit": "mmHg"}, {"measurement": "Response Average Change", "setting": "5 mg/kg P.O., AII 0.1 mcg/kg IV, 60 min post dose", "value": 29, "unit": "mmHg"}, {"measurement": "Response Average Change", "setting": "5 mg/kg P.O., AII 0.1 mcg/kg IV, 90 min post dose", "value": 29.5, "unit": "mmHg"}, {"measurement": "Response Average Change", "setting": "5 mg/kg P.O., AII 0.1 mcg/kg IV, 120 min post dose", "value": 25, "unit": "mmHg"}, {"measurement": "Response Average Change", "setting": "5 mg/kg P.O., AII 0.1 mcg/kg IV, 180 min post dose", "value": 41.5, "unit": "mmHg"}, {"measurement": "Response Average Change", "setting": "5 mg/kg P.O., AII 0.1 mcg/kg IV, 240 min post dose", "value": 40, "unit": "mmHg"}, {"measurement": "Response Average Change", "setting": "5 mg/kg P.O., AII 0.1 mcg/kg IV, 300 min post dose", "value": 42.5, "unit": "mmHg"}, {"measurement": "inhibition in vivo at 3 mg/kg", "setting": "[11]", "value": 67, "unit": "%"}, {"measurement": "inhibition in vivo at 3 mg/kg", "setting": "[12]", "value": 81, "unit": "%"}, {"measurement": "inhibition in vivo at 3 mg/kg", "setting": "[13]", "value": 40, "unit": "%"}, {"measurement": "inhibition in vivo at 3 mg/kg", "setting": "[14]", "value": 63, "unit": "%"}, {"measurement": "inhibition in vivo at 3 mg/kg", "setting": "[15]", "value": 57, "unit": "%"}, {"measurement": "inhibition in vivo at 3 mg/kg", "setting": "[16]", "value": 17, "unit": "%"}, {"measurement": "inhibition in vivo at 3 mg/kg", "setting": "[17]", "value": 11, "unit": "%"}, {"measurement": "inhibition in vivo at 3 mg/kg", "setting": "[18]", "value": 2, "unit": "%"}, {"measurement": "inhibition in vivo at 3 mg/kg", "setting": "[19]", "value": 47, "unit": "%"}, {"measurement": "inhibition in vivo at 3 mg/kg", "setting": "[20]", "value": 50, "unit": "%"}, {"measurement": "inhibition in vivo at 5 mg/kg", "setting": "0.5 h, 5 mg/kg P.O., AII 0.05 mcg/kg IV, 30 min post dose", "value": 26, "unit": "%"}, {"measurement": "inhibition in vivo at 5 mg/kg", "setting": "0.5 h, 5 mg/kg P.O., AII 0.1 mcg/kg IV, 30 min post dose", "value": 47, "unit": "%"}, {"measurement": "inhibition in vivo at 5 mg/kg", "setting": "1 h, 5 mg/kg P.O., AII 0.05 mcg/kg IV, 60 min post dose", "value": 41, "unit": "%"}, {"measurement": "inhibition in vivo at 5 mg/kg", "setting": "1 h, 5 mg/kg P.O., AII 0.1 mcg/kg IV, 60 min post dose", "value": 32, "unit": "%"}, {"measurement": "inhibition in vivo at 5 mg/kg", "setting": "2 h, 5 mg/kg P.O., AII 0.05 mcg/kg IV, 120 min post dose", "value": 53, "unit": "%"}, {"measurement": "inhibition in vivo at 5 mg/kg", "setting": "2 h, 5 mg/kg P.O., AII 0.1 mcg/kg IV, 120 min post dose", "value": 41, "unit": "%"}, {"measurement": "inhibition in vivo at 5 mg/kg", "setting": "3 h, 5 mg/kg P.O., AII 0.05 mcg/kg IV, 180 min post dose", "value": 53, "unit": "%"}, {"measurement": "inhibition in vivo at 5 mg/kg", "setting": "3 h, 5 mg/kg P.O., AII 0.1 mcg/kg IV, 180 min post dose", "value": 2, "unit": "%"}, {"measurement": "inhibition in vivo at 5 mg/kg", "setting": "4 h, 5 mg/kg P.O., AII 0.05 mcg/kg IV, 240 min post dose", "value": 53, "unit": "%"}, {"measurement": "inhibition in vivo at 5 mg/kg", "setting": "4 h, 5 mg/kg P.O., AII 0.1 mcg/kg IV, 240 min post dose", "value": 6, "unit": "%"}, {"measurement": "inhibition in vivo at 5 mg/kg", "setting": "5 h, 5 mg/kg P.O., AII 0.05 mcg/kg IV, 300 min post dose", "value": 47, "unit": "%"}, {"measurement": "inhibition in vivo at 5 mg/kg", "setting": "5 h, 5 mg/kg P.O., AII 0.1 mcg/kg IV, 300 min post dose", "value": 0, "unit": "%"}, {"measurement": "inhibition in vivo at 5 mg/kg", "setting": "[…], 5 mg/kg P.O., AII 0.05 mcg/kg IV, 90 min post dose", "value": 24, "unit": "%"}, {"measurement": "inhibition in vivo at 5 mg/kg", "setting": "[…], 5 mg/kg P.O., AII 0.1 mcg/kg IV, 90 min post dose", "value": 31, "unit": "%"}]}
